# Results from publication PMC9851200, “Multiparameter phenotypic screening for endogenous TFEB and TFE3 translocation identifies novel chemical series modulating lysosome function” (Autophagy, 2022).
# Legend:
# Format in all cases: binding
# [1] = target: T1, kinases (KINOMEscan panel) (Homo sapiens, UniProt Q8N752); conditions: CSNK1A1L; NEW KINOMEscan
# T1 sequence (Q8N752 1-337): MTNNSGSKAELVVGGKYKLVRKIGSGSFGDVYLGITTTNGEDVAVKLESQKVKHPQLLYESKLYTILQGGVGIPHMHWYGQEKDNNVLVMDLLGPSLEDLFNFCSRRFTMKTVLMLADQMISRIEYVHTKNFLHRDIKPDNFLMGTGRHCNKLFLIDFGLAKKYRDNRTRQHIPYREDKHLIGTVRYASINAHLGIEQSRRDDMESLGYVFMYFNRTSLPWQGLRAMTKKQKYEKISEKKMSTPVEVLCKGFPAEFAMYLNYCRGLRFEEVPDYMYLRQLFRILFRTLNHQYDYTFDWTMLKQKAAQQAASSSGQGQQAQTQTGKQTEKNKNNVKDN
# [2] = target: kinases (KINOMEscan panel) (Homo sapiens, UniProt P23458); conditions: JAK1(JH1domain-catalytic); NEW KINOMEscan
# [3] = target: kinases (KINOMEscan panel) (Homo sapiens, UniProt Q9HC98); conditions: kinase NEK6; NEW KINOMEscan
# kinases (KINOMEscan panel) (Homo sapiens, UniProt Q9HC98), sequence (Q9HC98 whole entry): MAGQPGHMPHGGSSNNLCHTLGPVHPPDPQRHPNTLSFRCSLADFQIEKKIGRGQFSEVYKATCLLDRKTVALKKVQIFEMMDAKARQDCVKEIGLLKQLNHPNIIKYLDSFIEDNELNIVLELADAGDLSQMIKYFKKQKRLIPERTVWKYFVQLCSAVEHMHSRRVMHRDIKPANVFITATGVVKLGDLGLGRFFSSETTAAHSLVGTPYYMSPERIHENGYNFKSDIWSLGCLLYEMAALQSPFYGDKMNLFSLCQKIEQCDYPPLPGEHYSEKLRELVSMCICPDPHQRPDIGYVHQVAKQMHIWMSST
# [4] = target: kinases (KINOMEscan panel) (Homo sapiens, UniProt P36888, K663Q); conditions: kinase FLT3(K663Q); NEW KINOMEscan
# [5] = target: kinases (KINOMEscan panel) (Homo sapiens, UniProt Q13705); conditions: kinase ACVR2B; NEW KINOMEscan
# kinases (KINOMEscan panel) (Homo sapiens, UniProt Q13705), sequence (Q13705 19-512): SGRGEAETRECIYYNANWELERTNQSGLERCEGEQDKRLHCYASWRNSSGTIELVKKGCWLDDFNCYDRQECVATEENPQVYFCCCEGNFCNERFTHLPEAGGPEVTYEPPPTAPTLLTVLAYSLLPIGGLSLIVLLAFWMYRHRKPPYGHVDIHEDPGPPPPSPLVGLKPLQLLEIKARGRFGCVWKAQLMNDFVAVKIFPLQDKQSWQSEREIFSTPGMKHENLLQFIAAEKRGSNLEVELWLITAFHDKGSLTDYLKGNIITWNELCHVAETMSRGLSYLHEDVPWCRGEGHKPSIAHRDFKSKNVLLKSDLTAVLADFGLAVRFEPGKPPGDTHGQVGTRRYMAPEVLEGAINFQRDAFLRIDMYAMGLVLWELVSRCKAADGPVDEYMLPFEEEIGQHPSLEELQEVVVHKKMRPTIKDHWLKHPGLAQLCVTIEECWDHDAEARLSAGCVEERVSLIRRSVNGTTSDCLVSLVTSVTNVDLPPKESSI
# [6] = target: kinases (KINOMEscan panel) (Homo sapiens, UniProt P00533, L858R); conditions: kinase EGFR(L858R); NEW KINOMEscan
# [7] = target: kinases (KINOMEscan panel) (Homo sapiens, UniProt Q9Y2H9); conditions: MAST1; NEW KINOMEscan
# kinases (KINOMEscan panel) (Homo sapiens, UniProt Q9Y2H9), sequence (Q9Y2H9 whole entry): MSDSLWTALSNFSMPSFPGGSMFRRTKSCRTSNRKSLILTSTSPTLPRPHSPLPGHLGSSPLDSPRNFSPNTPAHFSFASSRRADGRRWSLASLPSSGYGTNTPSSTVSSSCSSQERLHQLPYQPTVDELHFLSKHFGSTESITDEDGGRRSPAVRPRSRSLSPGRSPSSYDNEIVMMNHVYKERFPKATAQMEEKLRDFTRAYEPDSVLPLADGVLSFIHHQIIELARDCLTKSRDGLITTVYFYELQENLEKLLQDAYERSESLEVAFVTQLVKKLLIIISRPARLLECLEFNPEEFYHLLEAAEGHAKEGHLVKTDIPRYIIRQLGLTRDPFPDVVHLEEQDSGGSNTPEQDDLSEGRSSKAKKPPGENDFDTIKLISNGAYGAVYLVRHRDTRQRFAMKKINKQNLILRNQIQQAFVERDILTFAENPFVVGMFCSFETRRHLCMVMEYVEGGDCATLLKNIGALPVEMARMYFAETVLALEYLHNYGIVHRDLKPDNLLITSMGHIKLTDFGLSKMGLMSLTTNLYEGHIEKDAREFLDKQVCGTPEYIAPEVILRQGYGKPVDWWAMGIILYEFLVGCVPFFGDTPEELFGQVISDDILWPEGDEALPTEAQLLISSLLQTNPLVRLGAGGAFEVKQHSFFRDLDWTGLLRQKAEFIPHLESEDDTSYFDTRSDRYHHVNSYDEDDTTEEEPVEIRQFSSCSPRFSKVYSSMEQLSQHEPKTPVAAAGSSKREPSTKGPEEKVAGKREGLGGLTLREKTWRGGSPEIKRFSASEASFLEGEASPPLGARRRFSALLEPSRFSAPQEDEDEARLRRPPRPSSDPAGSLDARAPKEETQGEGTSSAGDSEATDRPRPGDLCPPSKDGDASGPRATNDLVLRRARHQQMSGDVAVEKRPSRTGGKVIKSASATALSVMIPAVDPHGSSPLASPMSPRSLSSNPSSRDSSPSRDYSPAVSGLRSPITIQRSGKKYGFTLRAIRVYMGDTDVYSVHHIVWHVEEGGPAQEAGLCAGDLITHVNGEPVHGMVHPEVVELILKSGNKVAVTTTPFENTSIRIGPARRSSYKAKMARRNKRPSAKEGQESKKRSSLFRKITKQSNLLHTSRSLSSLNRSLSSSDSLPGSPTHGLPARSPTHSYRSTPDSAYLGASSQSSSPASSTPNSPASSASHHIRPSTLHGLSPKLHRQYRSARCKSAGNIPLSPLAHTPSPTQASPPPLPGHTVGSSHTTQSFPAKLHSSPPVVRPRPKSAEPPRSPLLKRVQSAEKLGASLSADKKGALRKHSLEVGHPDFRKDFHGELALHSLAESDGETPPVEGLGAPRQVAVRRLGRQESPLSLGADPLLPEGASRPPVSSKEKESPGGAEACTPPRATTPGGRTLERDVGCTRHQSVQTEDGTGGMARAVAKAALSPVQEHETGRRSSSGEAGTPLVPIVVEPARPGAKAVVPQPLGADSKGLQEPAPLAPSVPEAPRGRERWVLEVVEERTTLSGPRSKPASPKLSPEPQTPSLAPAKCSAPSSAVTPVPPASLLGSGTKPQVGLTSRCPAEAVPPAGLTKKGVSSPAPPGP
# [8] = target: kinases (KINOMEscan panel) (Homo sapiens, UniProt P00533, DEL752-759); conditions: EGFR(S752-I759del); NEW KINOMEscan
# [9] = target: kinases (KINOMEscan panel) (Homo sapiens, UniProt Q9BQI3)
# kinases (KINOMEscan panel) (Homo sapiens, UniProt Q9BQI3), sequence (Q9BQI3 whole entry): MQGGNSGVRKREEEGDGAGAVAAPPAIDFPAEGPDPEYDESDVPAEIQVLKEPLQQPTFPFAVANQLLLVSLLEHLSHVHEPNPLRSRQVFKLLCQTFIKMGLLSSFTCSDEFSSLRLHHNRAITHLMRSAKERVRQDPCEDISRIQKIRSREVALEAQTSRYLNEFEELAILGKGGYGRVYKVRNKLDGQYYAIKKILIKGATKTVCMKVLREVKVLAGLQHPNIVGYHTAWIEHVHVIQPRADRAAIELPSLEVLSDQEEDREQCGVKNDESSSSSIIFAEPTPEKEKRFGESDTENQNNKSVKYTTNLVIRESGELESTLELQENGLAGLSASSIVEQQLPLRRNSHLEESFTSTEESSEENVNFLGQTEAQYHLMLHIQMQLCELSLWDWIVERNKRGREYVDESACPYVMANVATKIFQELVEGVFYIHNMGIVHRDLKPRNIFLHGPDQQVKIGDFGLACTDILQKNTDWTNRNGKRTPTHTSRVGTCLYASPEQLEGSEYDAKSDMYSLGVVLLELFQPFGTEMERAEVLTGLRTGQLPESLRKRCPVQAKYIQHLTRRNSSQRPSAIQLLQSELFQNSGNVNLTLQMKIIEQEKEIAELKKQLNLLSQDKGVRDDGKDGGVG
# [10] = target: kinases (KINOMEscan panel) (Homo sapiens, UniProt Q9UM73); conditions: kinase ALK; NEW KINOMEscan
# kinases (KINOMEscan panel) (Homo sapiens, UniProt Q9UM73), sequence (Q9UM73 19-1620): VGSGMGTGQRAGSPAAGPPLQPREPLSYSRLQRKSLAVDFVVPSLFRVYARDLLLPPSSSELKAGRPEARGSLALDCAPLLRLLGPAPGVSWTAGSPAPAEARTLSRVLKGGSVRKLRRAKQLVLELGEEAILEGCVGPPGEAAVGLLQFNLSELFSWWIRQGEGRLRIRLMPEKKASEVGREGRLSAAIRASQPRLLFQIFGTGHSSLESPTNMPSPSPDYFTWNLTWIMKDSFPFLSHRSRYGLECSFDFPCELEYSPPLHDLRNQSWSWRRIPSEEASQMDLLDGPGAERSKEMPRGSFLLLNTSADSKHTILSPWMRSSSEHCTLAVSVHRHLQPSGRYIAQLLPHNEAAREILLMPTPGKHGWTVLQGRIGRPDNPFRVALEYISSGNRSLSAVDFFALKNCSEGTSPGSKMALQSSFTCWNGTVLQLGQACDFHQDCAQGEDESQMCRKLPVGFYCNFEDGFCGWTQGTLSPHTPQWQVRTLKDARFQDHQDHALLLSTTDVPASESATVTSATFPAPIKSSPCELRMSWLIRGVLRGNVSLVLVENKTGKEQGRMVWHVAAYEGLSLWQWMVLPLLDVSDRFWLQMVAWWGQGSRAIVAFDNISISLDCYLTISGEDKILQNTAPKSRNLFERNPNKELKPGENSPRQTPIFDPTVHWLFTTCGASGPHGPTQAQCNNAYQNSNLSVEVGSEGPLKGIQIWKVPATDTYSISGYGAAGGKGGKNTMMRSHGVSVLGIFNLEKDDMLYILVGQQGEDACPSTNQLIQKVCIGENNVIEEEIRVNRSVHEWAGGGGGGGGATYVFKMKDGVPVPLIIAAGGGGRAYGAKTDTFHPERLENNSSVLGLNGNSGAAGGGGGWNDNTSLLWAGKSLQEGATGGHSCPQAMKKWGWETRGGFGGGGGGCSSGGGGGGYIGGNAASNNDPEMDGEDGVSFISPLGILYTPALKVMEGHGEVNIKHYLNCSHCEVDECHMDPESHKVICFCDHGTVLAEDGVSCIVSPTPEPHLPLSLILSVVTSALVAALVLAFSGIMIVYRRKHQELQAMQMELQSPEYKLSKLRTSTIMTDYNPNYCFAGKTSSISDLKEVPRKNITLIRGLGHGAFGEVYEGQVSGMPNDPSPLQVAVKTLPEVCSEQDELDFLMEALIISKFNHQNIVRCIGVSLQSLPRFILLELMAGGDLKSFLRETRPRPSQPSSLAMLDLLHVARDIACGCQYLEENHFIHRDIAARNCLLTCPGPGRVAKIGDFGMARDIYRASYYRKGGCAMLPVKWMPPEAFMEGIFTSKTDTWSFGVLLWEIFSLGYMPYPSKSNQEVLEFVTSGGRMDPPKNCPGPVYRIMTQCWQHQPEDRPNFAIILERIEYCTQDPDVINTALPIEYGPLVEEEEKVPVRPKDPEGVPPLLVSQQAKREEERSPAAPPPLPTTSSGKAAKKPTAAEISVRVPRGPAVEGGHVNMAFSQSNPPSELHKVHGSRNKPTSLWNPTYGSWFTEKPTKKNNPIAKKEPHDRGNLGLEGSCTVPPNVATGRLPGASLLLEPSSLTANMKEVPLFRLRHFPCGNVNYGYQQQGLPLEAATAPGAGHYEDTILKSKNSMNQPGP
# [11] = target: T2, kinases (KINOMEscan panel) (Homo sapiens, UniProt Q6XUX3); conditions: DSTYK; NEW KINOMEscan
# T2 sequence (Q6XUX3 1-929): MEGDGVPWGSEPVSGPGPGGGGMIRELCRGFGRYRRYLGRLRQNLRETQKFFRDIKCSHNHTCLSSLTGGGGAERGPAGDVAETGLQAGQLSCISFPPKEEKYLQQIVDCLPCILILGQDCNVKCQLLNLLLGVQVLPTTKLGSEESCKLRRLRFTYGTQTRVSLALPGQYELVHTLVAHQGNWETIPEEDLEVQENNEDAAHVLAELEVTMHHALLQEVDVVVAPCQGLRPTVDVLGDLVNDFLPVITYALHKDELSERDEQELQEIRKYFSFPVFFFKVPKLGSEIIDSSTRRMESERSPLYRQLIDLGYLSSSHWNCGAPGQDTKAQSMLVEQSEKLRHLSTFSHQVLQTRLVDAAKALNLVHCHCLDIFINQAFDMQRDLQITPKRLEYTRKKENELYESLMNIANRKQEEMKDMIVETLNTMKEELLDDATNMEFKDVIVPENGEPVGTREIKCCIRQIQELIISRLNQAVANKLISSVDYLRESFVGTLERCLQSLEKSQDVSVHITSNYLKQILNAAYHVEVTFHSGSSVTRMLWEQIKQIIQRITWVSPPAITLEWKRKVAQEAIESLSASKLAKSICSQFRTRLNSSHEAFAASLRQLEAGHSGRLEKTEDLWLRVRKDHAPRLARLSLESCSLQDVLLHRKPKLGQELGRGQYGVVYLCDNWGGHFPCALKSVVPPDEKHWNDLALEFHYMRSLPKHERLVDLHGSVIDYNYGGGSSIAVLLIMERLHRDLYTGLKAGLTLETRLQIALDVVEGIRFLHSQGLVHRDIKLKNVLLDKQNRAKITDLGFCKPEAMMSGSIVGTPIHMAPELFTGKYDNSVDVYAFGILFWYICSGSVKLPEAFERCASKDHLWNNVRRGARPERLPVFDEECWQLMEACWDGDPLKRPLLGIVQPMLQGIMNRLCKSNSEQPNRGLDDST
# [12] = target: kinases (KINOMEscan panel) (Homo sapiens, UniProt Q13557); conditions: kinase CAMK2D; NEW KINOMEscan
# [13] = target: T3, kinases (KINOMEscan panel) (Homo sapiens, UniProt O14920)
# T3 sequence (O14920 1-756): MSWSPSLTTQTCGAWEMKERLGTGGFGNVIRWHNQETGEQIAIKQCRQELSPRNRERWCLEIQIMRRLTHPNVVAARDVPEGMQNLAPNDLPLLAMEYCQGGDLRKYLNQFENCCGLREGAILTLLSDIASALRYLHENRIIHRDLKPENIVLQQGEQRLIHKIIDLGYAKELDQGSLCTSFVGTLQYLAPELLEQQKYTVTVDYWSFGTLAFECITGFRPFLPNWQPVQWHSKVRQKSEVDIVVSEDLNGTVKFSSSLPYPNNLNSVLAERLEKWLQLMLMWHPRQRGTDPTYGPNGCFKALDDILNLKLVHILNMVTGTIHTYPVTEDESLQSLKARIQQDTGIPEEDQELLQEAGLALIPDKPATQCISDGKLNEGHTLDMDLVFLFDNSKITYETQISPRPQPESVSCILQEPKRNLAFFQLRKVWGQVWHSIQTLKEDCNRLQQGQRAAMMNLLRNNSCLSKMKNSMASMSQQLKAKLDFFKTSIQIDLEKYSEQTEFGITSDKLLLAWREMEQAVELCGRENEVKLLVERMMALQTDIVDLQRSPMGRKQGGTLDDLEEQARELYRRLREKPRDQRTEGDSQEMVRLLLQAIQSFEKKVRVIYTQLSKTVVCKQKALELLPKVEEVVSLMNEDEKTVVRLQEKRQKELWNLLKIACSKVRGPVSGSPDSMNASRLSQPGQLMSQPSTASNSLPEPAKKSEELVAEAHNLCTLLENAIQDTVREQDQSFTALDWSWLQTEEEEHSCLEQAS
SMILES,KINOMEscan CSNK1A1L [1],KINOMEscan JAK1(JH1domain-catalytic) [2],KINOMEscan NEK6 [3],KINOMEscan FLT3(K663Q) [4],KINOMEscan ACVR2B [5],KINOMEscan EGFR(L858R) [6],KINOMEscan MAST1 [7],KINOMEscan EGFR(S752-I759del) [8],KINOMEscan ElF2AK2/EIF2AK1 [9],KINOMEscan ALK [10],KINOMEscan DSTYK [11],KINOMEscan CAMK2D [12],KINOMEscan IKBKB/IKK-beta [13]
Cc1cccc(-c2nc(Nc3ccc4nn(C)cc4c3)c3ccccc3n2)n1 [NK167],0,0,0,0,0,0,0,0,0,22,0,0,5
Cc1cccc(-c2nc(N(C)c3ccc4ncsc4c3)c3ccccc3n2)n1 [NK-161],12,0,6,0,22,2,0,0,1,9,0,0,25
